# Laboratory results as given in US20260262639A1, “PHENYLCYCLOHEXANONE COMPOUND AND USE THEREFOR” (SUMITOMO CHEMICAL COMPANY, LIMITED, priority 2023, published 2026).
# Test system: Pythium ultimum
# Assay: Control test against seedling blight fungus (Pythium ultimum)
# Format: cell-based
# Settings: 1 μL of 500 ppm DMSO solution + 150 μL PDB medium with spores, 96 well plate, 23° C., 5 days, absorbance at 550 nm
# Experimental: The untreated well represents a test well in which the procedures were carried out under the same conditions as those described in the Test Example except that dimethyl sulfoxide was dispensed in place of a diluted dimethyl sulfoxide solution containing the Present compound. The Present compound was diluted with dimethyl sulfoxide to obtain a diluted solution containing 500 ppm of the compound, 1 μL of the diluted solution was dispensed into a titer plate (96 well), and thereto was then dispensed 150 μL of a potato dextrose broth medium (PDB medium) to which spores of Pythium ultimum were inoculated in advance. This plate was cultured at 23° C. for 5 days, thereby allowing Pythium ultimum to undergo proliferation, and the absorbance at 550 nm of each well of the titer plate was then measured to obtain a value as a degree of growth of Pythium ultimum. As a result, the degree of growth in the well treated with the Present compound was 50% or less relative to the degree of growth in the untreated well.
smiles,measurement,value
CC1CC(S(C)(=O)=O)C(O)(c2ccccc2)CC1=O (stereo not shown) [Present compound],degree of growth relative to the degree of growth in the untreated well,≤ 50%
